Assay results from patent US11780840B2 (Incyte Corporation, priority 2020, dated 2023).

Experiments:
[1] = target: T1, catalytic domain (JH1, amino acids 826-1132) of human JAK2 (Homo sapiens, UniProt O60674); assay: JAK2 LanthaScreen JH1 Binding Assay; conditions: JAK2 JH1 (1.5 nM), 50 nM fluorescent JAK2-JH1 tracer, 2 hours at 25° C.; read-out: JH1 BIND
T1 construct: catalytic domain (JH1, amino acids 826-1132) of human JAK2; FLAG (N); purchased Carna Biosciences 08-445-20N; host or cells: baculovirus expression system
Summary of the method: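 FLAG-tagged, biotinylated JAK2 JH1 (aa 826-1132, baculovirus-expressed; 1.5 nM) incubated 2 h at 25° C with compounds, 50 nM fluorescent tracer and 0.5 nM Streptavidin-Tb in Tris pH 7.5 buffer with MgCl2, Brij-35, BSA, EGTA, glycerol, DTT. Nonspecific binding defined with 2 mM ATP; TR-FRET IC50 from four-parameter fit.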

[2] = target: T2, pseudo-kinase domain (JH2, amino-acids 536-812 with 3 surface mutations W659A, W777A, F794H) of human Wild Type JAK2 (Homo sapiens, UniProt O60674, F794H/W659A/W777A); assay: JAK2 LanthaScreen JH2-WT Binding Assay; conditions: JAK2 JH2-WT (0.145 nM), 50 nM Fluorescent JAK2-JH2 Tracer, 1 hour at 25° C.; read-out: JH2 BIND WT
T2 construct: pseudo-kinase domain (JH2, amino-acids 536-812 with 3 surface mutations W659A, W777A, F794H); His (C); Avi (biotinylated) (C); purchased BPS Bioscience 79463; host or cells: baculovirus expression system
Summary of the method: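 Biotinylated His-Avi-tagged JAK2 JH2 (0.145 nM), baculovirus-expressed, incubated with compounds, 50 nM fluorescent JH2 tracer and 0.25 nM streptavidin-Tb, 1 h at 25° C in pH 7.5 Tris buffer with MgCl2 and DTT. Non-specific binding defined with 2 mM ATP. TR-FRET read; IC50 from four-parameter fit.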

[3] = target: T3, pseudo-kinase domain (JH2, amino-acids 536-812 with 3 surface mutations W659A, W777A, F794H) of human V617F mutant JAK2 (Homo sapiens, UniProt O60674, F794H/V617F/W659A/W777A); assay: JAK2 LanthaScreen JH2-V617F Binding Assay; conditions: JAK2 JH2-V617F (0.26 nM), 50 nM Fluorescent JAK2-JH2 Tracer, 1 hour at 25° C.; read-out: JH2 BIND V617F
T3 construct: pseudo-kinase domain (JH2, amino-acids 536-812 with 3 surface mutations W659A, W777A, F794H); His (C); Avi (biotinylated) (C); purchased BPS Bioscience 79498; host or cells: baculovirus expression system
Summary of the method: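 Biotinylated His-Avi-tagged JH2 protein was baculovirus-expressed and used at 0.26 nM. It was incubated with compound, 50 nM fluorescent JH2 tracer and 0.25 nM streptavidin-Tb for 1 h at 25 °C in pH 7.5 Tris buffer with MgCl2, BSA, DTT. Non-specific binding was defined with 2 mM ATP. IC50 came from four-parameter fits of TR-FRET signal.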

T1 sequence (O60674 826-1132): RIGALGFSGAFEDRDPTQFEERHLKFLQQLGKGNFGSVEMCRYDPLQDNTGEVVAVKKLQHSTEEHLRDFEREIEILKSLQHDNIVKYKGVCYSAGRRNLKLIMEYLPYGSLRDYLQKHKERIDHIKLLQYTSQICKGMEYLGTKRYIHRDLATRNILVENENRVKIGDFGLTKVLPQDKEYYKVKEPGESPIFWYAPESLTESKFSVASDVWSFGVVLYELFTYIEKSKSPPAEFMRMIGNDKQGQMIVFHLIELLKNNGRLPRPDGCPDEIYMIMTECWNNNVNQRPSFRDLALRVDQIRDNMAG
T2 sequence (O60674 536-812 W659A/W777A/F794H): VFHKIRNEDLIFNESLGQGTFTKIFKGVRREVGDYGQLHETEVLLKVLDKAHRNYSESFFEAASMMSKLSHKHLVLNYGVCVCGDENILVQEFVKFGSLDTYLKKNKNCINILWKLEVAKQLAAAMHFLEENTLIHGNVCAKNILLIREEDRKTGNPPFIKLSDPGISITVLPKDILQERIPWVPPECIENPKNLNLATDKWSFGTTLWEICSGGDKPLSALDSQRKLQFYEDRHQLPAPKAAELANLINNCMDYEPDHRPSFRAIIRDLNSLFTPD
T3 sequence (O60674 536-812 V617F/W659A/W777A/F794H): as the sequence (O60674 536-812 W659A/W777A/F794H) above, with V82F counted along it

| Structure (SMILES) | IC50 [1] | IC50 [2] | IC50 [3] |
| --- | --- | --- | --- |
| CC(C)n1c(=O)n(C)c2cnc3[nH]c(-c4cnn(CC(C)(C)O)c4)c(-c4cnc(N5CCOCC5)s4)c3c21 [Example 76, 7-(1-(2-Hydroxy-2-methylpropyl)-1H-pyrazol-4-yl)-1-isopropyl-3-methyl-8-(2-morpholinothiazol-5-yl)-3,6-dihydroimidazo[4,5-d]pyrrolo[2,3-b]pyridin-2(1H)-one] | > 1000 nM | 10 to 100 nM | 10 to 100 nM |
| CC(C)n1c(=O)n(C)c2cnc3[nH]c(-c4cnn(CC(C)(C)O)c4)c(-c4ccc5cnccc5c4)c3c21 [Example 77, 7-(1-(2-Hydroxy-2-methylpropyl)-1H-pyrazol-4-yl)-1-isopropyl-8-(isoquinolin-6-yl)-3-methyl-3,6-dihydroimidazo[4,5-d]pyrrolo[2,3-b]pyridin-2(1H)-one] | > 1000 nM | 10 to 100 nM | 10 to 100 nM |
| CC(C)n1c(=O)n(C)c2cnc3[nH]c(-c4cnn(CC(C)(C)O)c4)c(-c4ccc5ncsc5c4)c3c21 [Example 78, 8-(Benzo[d]thiazol-6-yl)-7-(1-(2-hydroxy-2-methylpropyl)-1H-pyrazol-4-yl)-1-isopropyl-3-methyl-3,6-dihydroimidazo[4,5-d]pyrrolo[2,3-b]pyridin-2(1H)-one] | > 1000 nM | 10 to 100 nM | 10 to 100 nM |
| CC(C)n1c(=O)n(C)c2cnc3[nH]c(-c4cnn(CC(C)(C)O)c4)c(-c4ccc5c(c4)CCCO5)c3c21 [Example 79, 8-(Chroman-6-yl)-7-(1-(2-hydroxy-2-methylpropyl)-1H-pyrazol-4-yl)-1-isopropyl-3-methyl-3,6-dihydroimidazo[4,5-d]pyrrolo[2,3-b]pyridin-2(1H)-one] | 100 to 500 nM | ≤ 10 nM | 10 to 100 nM |
| CC(C)n1c(=O)n(C)c2cnc3[nH]c(-c4cnn(CC(C)(C)O)c4)c(-c4cc5cnc(N6CCNCC6)cc5s4)c3c21 [Example 80, 7-(1-(2-Hydroxy-2-methylpropyl)-1H-pyrazol-4-yl)-1-isopropyl-3-methyl-8-(6-(piperazin-1-yl)thieno[3,2-c]pyridin-2-yl)-3,6-dihydroimidazo[4,5-d]pyrrolo[2,3-b]pyridin-2(1H)-one] | 100 to 500 nM | ≤ 10 nM | ≤ 10 nM |
| CC(=O)N1CCN(c2cc3sc(-c4c(-c5cnn(CC(C)(C)O)c5)[nH]c5ncc6c(c45)n(C(C)C)c(=O)n6C)cc3cn2)CC1 [Example 81, 8-(6-(4-Acetylpiperazin-1-yl)thieno[3,2-c]pyridin-2-yl)-7-(1-(2-hydroxy-2-methylpropyl)-1H-pyrazol-4-yl)-1-isopropyl-3-methyl-3,6-dihydroimidazo[4,5-d]pyrrolo[2,3-b]pyridin-2(1H)-one] | > 1000 nM | ≤ 10 nM | 10 to 100 nM |
| CC(C)n1c(=O)n(C)c2cnc3[nH]c(-c4cnn(CC(C)(C)O)c4)c(-c4cc5c(s4)CCNC5)c3c21 [Example 82, 7-(1-(2-Hydroxy-2-methylpropyl)-1H-pyrazol-4-yl)-1-isopropyl-3-methyl-8-(4,5,6,7-tetrahydrothieno[3,2-c]pyridin-2-yl)-3,6-dihydroimidazo[4,5-d]pyrrolo[2,3-b]pyridin-2(1H)-one] | > 1000 nM | 100 to 500 nM | 500 to 1000 nM |
| CC(C)n1c(=O)n(C)c2cnc3[nH]c(-c4cnn(CC(C)(C)O)c4)c(-c4cc5c(s4)CCN(S(C)(=O)=O)C5)c3c21 [Example 83, 7-(1-(2-Hydroxy-2-methylpropyl)-1H-pyrazol-4-yl)-1-isopropyl-3-methyl-8-(5-(methylsulfonyl)-4,5,6,7-tetrahydrothieno[3,2-c]pyridin-2-yl)-3,6-dihydroimidazo[4,5-d]pyrrolo[2,3-b]pyridin-2(1H)-one] | > 1000 nM | ≤ 10 nM | 10 to 100 nM |
| Cc1cn2cc(-c3c(-c4cnn(CC(C)(C)O)c4)[nH]c4ncc5c(c34)n(C(C)C)c(=O)n5C)cc2cn1 [Example 84, 7-(1-(2-Hydroxy-2-methylpropyl)-1H-pyrazol-4-yl)-1-isopropyl-3-methyl-8-(3-methylpyrrolo[1,2-a]pyrazin-7-yl)-3,6-dihydroimidazo[4,5-d]pyrrolo[2,3-b]pyridin-2(1H)-one] | > 1000 nM | ≤ 10 nM | ≤ 10 nM |
| CC(C)n1c(=O)n(C)c2cnc3[nH]c(-c4cnn(CC(C)(C)O)c4)c(-c4ccn5cncc5c4)c3c21 [Example 85, 7-(1-(2-Hydroxy-2-methylpropyl)-1H-pyrazol-4-yl)-8-(imidazo[1,5-a]pyridin-7-yl)-1-isopropyl-3-methyl-3,6-dihydroimidazo[4,5-d]pyrrolo[2,3-b]pyridin-2(1H)-one] | > 1000 nM | ≤ 10 nM | 10 to 100 nM |
| CC(C)n1c(=O)n(C)c2cnc3[nH]c(-c4cnn(CC(C)(C)O)c4)c(-c4ccc5c(c4)CCC5O)c3c21 (stereo not drawn) [Example 86, 8-(1-Hydroxy-2,3-dihydro-1H-inden-5-yl)-7-(1-(2-hydroxy-2-methylpropyl)-1H-pyrazol-4-yl)-1-isopropyl-3-methyl-3,6-dihydroimidazo[4,5-d]pyrrolo[2,3-b]pyridin-2(1H)-one] | > 1000 nM | ≤ 10 nM | 10 to 100 nM |
| CC(C)n1c(=O)n(C)c2cnc3[nH]c(-c4cnn(CC(C)(C)O)c4)c(-c4ccc(COC5CCOCC5)cc4)c3c21 [Example 87, 7-(1-(2-Hydroxy-2-methylpropyl)-1H-pyrazol-4-yl)-1-isopropyl-3-methyl-8-(4-(((tetrahydro-2H-pyran-4-yl)oxy)methyl)phenyl)-3,6-dihydroimidazo[4,5-d]pyrrolo[2,3-b]pyridin-2(1H)-one] | > 1000 nM | ≤ 10 nM | ≤ 10 nM |
| CC(C)n1c(=O)n(C)c2cnc3[nH]c(-c4cnn(CC(C)(C)O)c4)c(C45CCNCC4C5)c3c21 (stereo not drawn) [Example 88, 8-(3-Azabicyclo[4.1.0]heptan-6-yl)-7-(1-(2-hydroxy-2-methylpropyl)-1H-pyrazol-4-yl)-1-isopropyl-3-methyl-3,6-dihydroimidazo[4,5-d]pyrrolo[2,3-b]pyridin-2(1H)-one] | > 1000 nM | ≤ 10 nM | 10 to 100 nM |
| CN(C)C(=O)c1ccc(-c2[nH]c3ncc4c(c3c2-c2ccc3c(cnn3C)c2)n(C2CCCC2)c(=O)n4C)cc1 [Example 89, 4-(1-Cyclopentyl-3-methyl-8-(1-methyl-1H-indazol-5-yl)-2-oxo-1,2,3,6-tetrahydroimidazo [4,5-d]pyrrolo[2,3-b]pyridin-7-yl)-N,N-dimethylbenzamide] | 500 to 1000 nM | ≤ 10 nM | ≤ 10 nM |
| Cn1ncc2cc(-c3c(-c4cnn5cccnc45)[nH]c4ncc5c(c34)n(C3CCOCC3)c(=O)n5C)ccc21 [Example 90, 3-Methyl-8-(1-methyl-1H-indazol-5-yl)-7-(pyrazolo[1,5-a]pyrimidin-3-yl)-1-(tetrahydro-2H-pyran-4-yl)-3,6-dihydroimidazo[4,5-d]pyrrolo[2,3-b]pyridin-2(1H)-one] | > 1000 nM | ≤ 10 nM | ≤ 10 nM |
| COc1nn(C)cc1-c1[nH]c2ncc3c(c2c1-c1ccc2c(cnn2C)c1)n(C1CCOCC1)c(=O)n3C [Example 91, 7-(3-methoxy-1-methyl-1H-pyrazol-4-yl)-3-methyl-8-(1-methyl-1H-indazol-5-yl)-1-(tetrahydro-2H-pyran-4-yl)-3,6-dihydroimidazo[4,5-d]pyrrolo[2,3-b]pyridin-2(1H)-one] | > 1000 nM | ≤ 10 nM | ≤ 10 nM |
